Common to all, as to format: cell-based
One test has as its system A431 cells. Briefly: In vitro tumor cell proliferation assay (Cell Titer-Glo) in A431 cells. To be noted: Homo sapiens, A-431, 72 h, A431 human epidermoid carcinoma overexpressing HER1; 72 hours exposure; read-out: IC50, activities in A431 cell lines. An outline of the steps: (§1)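 Viability after 72 h drug exposure at 37 °C was read as CellTiter-Glo ATP luminescence, giving IC50. Cells (2.5×10^3/well, RPMI + 10% FBS) were compound-treated one day post-seeding, 0.1% DMSO final: A431 overexpresses HER1, N87 overexpresses HER2 and HER1.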
For orientation: Cellular ATP, detected with luciferase, serves as a proxy for viable cell number.

In the next test the test system is N87. As to the kind of experiment: In vitro tumor cell proliferation assay (Cell Titer-Glo) in N87 cells. To be noted: N87 human gastric carcinoma overexpressing HER2 and HER1; 72 hours exposure; read-out: IC50, activities in N87 cell lines. The gist of the method:
as §1

In a further test the test system is H1975 cells. As to the kind of experiment: In vitro tumor cell proliferation assay (Cell Titer-Glo) in H1975 cells. As to conditions: NCI-H1975; H1975 human NSCLC expressing mutant HER1 (L858R,T790M); 72 hours exposure; read-out: IC50, activities in H 1975 cell lines. An outline of the steps: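 After 72 h compound exposure at 37° C (top 10 uM down to 64 pM, 0.1% DMSO), viability of EGFR L858R/T790M-mutant H1975 cells was read as ATP luminescence.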

On to `O=C(/C=C/CN1CCc2ccccc21)N1CCc2c(sc3ncnc(Nc4ccc(OCc5ccccn5)c(Cl)c4)c23)C1` [Example 44, N-[3-chloro-4-(pyridin-2-ylmethoxy)phenyl]-7-[(2E)-4-(2,3-dihydro-1H-indol-1-yl)but-2-enoyl]-5,6,7,8-tetrahydropyndo [4′,3′:4,5]thieno[2,3-d]pyrimidin-4-amine], for which the results for the half-maximal inhibitory concentration (IC50) with A431 cells, with N87 and in the test on H1975 cells were 1000 to 10000 nM, less than 200 nM and 1000 to 10000 nM, respectively.

With `CN(C/C=C/C(=O)N1CCc2c(sc3ncnc(Nc4cccc(Br)c4)c23)C1)C(C)(C)C` [Example 198, N-(3-bromophenyl)-7-{(2E)-4-[tert-butyl(methyl)amino]but-2-enoyl}-5,6,7,8-tetrahydropyrido [4′,3′:4,5]thieno[2,3-d]pyrimidin-4-amine], the IC50 (usually the concentration at which inhibition is half-maximal) is less than 200 nM with A431 cells, less than 200 nM in the test on N87 and 200 to 1000 nM in the test with H1975 cells.

As for `CCN(CC)C/C=C/C(=O)N1CCc2c(sc3ncnc(Nc4ccc(OCc5cccc(C)n5)c(Cl)c4)c23)C1` [Example 73, N-{3-chloro-4-[(6-methylpyridin-2-yl)methoxy]phenyl}-7-[(2E)-4-(diethylamino)but-2-enoyl]-5,6,7,8-tetrahydropyrido [4′,3′:4,5]thieno[2,3-d]pyrimidin-4-amine], the IC50 in the test with A431 cells is 1000 to 10000 nM; in the test with N87 it was less than 200 nM; with H1975 cells, 1000 to 10000 nM.

On to `O=C(/C=C/CN1CCOCC1)N1CCc2c(sc3ncnc(Nc4ccc5c(ccn5Cc5cccc(F)c5)c4)c23)C1` [Example 108, N-[1-(3-fluorobenzyl)-1H-indol-5-yl]-7-[(2E)-4-morpholin-4-ylbut-2-enoyl]-5,6,7,8-tetrahydropyrido [4′,3′:4,5]thieno[2,3-d]pyrimidin-4-amine], for which the concentration for half-maximal inhibition (IC50) is less than 200 nM in the test with A431 cells, less than 200 nM with N87 and 200 to 1000 nM in the test on H1975 cells.

As for `CCN(C)C/C=C/C(=O)N1CCc2c(sc3ncnc(Nc4ccc(OCc5cnccn5)c(Cl)c4)c23)C1` [Example 81, N-[3-chloro-4-(pyrazin-2-ylmethoxy)phenyl]-7-{(2E)-4-[ethyl(methyl)amino]but-2-enoyl}-5,6,7,8-tetrahydropyrido [4′,3′:4,5]thieno[2,3-d]pyrimidin-4-amine], the IC50 in the test with A431 cells is 1000 to 10000 nM; with N87, less than 200 nM; in the test on H1975 cells, 200 to 1000 nM.

Regarding `CN(C)C/C=C/C(=O)N1CCc2c(sc3ncnc(Nc4ccc5c(ccn5Cc5ccccc5)c4)c23)C1` [Example 93, N-(1-benzyl-1H-indol-5-yl)-7-[(2E)-4-(dimethylamino)but-2-enoyl]-5,6,7,8-tetrahydropyrido [4′,3′:4,5]thieno[2,3-d]pyrimidin-4-amine], the IC50 with A431 cells was 200 to 1000 nM; in the test with N87, less than 200 nM; in the test on H1975 cells it was less than 200 nM.

Turning to `O=C(/C=C/CN1CCC(O)CC1)N1CCc2c(sc3ncnc(Nc4ccc(F)c(Cl)c4)c23)C1` [Example 58, 1-[(2E)-4-{4-[(3-chloro-4-fluorophenyl)amino]-5,8-dihydropyrido [4′,3′:4,5]thieno[2,3-d]pyrimidin-7(6H)-yl}-4-oxobut-2-en-1-yl]piperidin-4-ol], the IC50 is 1000 to 10000 nM in the test on A431 cells, less than 200 nM in the test on N87 and 1000 to 10000 nM in the test with H1975 cells.

As to `C#Cc1cccc(Nc2ncnc3sc4c(c23)CCN(C(=O)/C=C/CN2CCCCC2)C4)c1` [Example 20, N-(3-ethynylphenyl)-7-[(2E)-4-piperidin-1-ylbut-2-enoyl]-5,6,7,8-tetrahydropyrido [4′,3′:4,5]thieno[2,3-d]pyrimidin-4-amine], the IC50 with A431 cells is less than 200 nM; with N87, less than 200 nM; in the test with H1975 cells it was 200 to 1000 nM.

Take `O=C(C#CCCN1CCCCC1)N1CCc2c(sc3ncnc(Nc4ccc(OCc5cccc(F)c5)c(Cl)c4)c23)C1` [Example 142, N-{3-chloro-4-[(3-fluorobenzyl)oxy]phenyl}-7-(5-piperidin-1-ylpent-2-ynoyl)-5,6,7,8-tetrahydropyrido [4′,3′:4,5]thieno[2,3-d]pyrimidin-4-amine]: the figures for the IC50 in the test with A431 cells, in the test on N87 and in the test on H1975 cells were 200 to 1000 nM, less than 200 nM and 200 to 1000 nM, respectively.

As for `CC1CCCCN1C/C=C/C(=O)N1CCc2c(sc3ncnc(Nc4ccc(OCc5ccccn5)c(Cl)c4)c23)C1` (stereo not drawn) [Example 64], the IC50 in the test with A431 cells is 200 to 1000 nM; in the test on N87, less than 200 nM; in the test on H1975 cells, 200 to 1000 nM.

On to `CN(C/C=C/C(=O)N1CCc2c(sc3ncnc(Nc4ccc(OCc5ccccn5)c(Cl)c4)c23)C1)C(C)(C)C` [Example 65, 7-{(2E)-4-[tert-butyl(methyl)amino]but-2-enoyl}-N-[3-chloro-4-(pyridin-2-ylmethoxy)phenyl]-5,6,7,8-tetrahydropyrido [4′,3′:4,5]thieno[2,3-d]pyrimidin-4-amine], for which the IC50 in the test on A431 cells is 200 to 1000 nM; in the test on N87 it was less than 200 nM; in the test with H1975 cells, less than 200 nM.

On to `O=C(/C=C/CN1CCCC1)N1CCc2c(sc3ncnc(Nc4ccc(OCc5cnccn5)c(Cl)c4)c23)C1` [Example 83, N-[3-chloro-4-(pyrazin-2-ylmethoxy)phenyl]-7-[(2E)-4-pyrrolidin-1-ylbut-2-enoyl]-5,6,7,8-tetrahydropyrido [4′3′:4,5]thieno[2,3-d]pyrimidin-4-amine], for which the IC50 in the test on A431 cells was 1000 to 10000 nM; with N87, less than 200 nM; in the test on H1975 cells it was 200 to 1000 nM.

For `CCN(CC)C/C=C/C(=O)N1CCc2c(sc3ncnc(Nc4ccc5c(ccn5Cc5ccccc5)c4)c23)C1` [Example 94, N-(1-benzyl-1H-indol-5-yl)-7-[(2E)-4-(diethylamino)but-2-enoyl]-5,6,7,8-tetrahydropyrido [4′,3′:4,5]thieno[2,3-d]pyrimidin-4-amine], the half-maximal inhibitory concentration (IC50) in the test with A431 cells was 200 to 1000 nM; with N87, less than 200 nM; in the test with H1975 cells, 200 to 1000 nM.

On to `CN1CCN(C/C=C/C(=O)N2CCc3c(sc4ncnc(Nc5ccc(OCc6cccc(F)c6)c(Cl)c5)c34)C2)CC1` [Example 14, N-{3-chloro-4-[(3-fluorobenzyl)oxy]phenyl}-7-[(2E)-4-(4-methylpiperazin-1-yl)but-2-enoyl]-5,6,7,8-tetrahydropyrido[4′,3′:4,5]thieno[2,3-d]pyrimidin-4-amine], for which the IC50 in the test on A431 cells is less than 200 nM; in the test with N87, less than 200 nM; with H1975 cells it was 1000 to 10000 nM.

On to `CN(C)C/C=C/C(=O)N1CCc2c(sc3ncnc(Nc4ccc5c(c4)CCC5)c23)C1` [Example 185, N-(2,3-dihydro-1H-inden-5-yl)-7-[(2E)-4-(dimethylamino)but-2-enoyl]-5,6,7,8-tetrahydropyrido [4′,3′:4,5]thieno[2,3-d]pyrimidin-4-amine], for which the IC50 in the test with A431 cells was 200 to 1000 nM; in the test on N87 it was less than 200 nM; in the test with H1975 cells it was 1000 to 10000 nM.

With `O=C(/C=C/CN1CCCCC1)N1CCc2c(sc3ncnc(Nc4ccc5c(cnn5Cc5cccc(F)c5)c4)c23)C1` [Example 101], the IC50 in the test with A431 cells was 200 to 1000 nM; in the test with N87, less than 200 nM; in the test on H1975 cells, 200 to 1000 nM.

As for `CCN(C)C/C=C/C(=O)N1CCc2c(sc3ncnc(Nc4ccc(F)c(Cl)c4)c23)C1` [Example 40, N-(3-chloro-4-fluorophenyl)-7-{(2E)-4-[ethyl(methyl)amino]but-2-enoyl}-5,6,7,8-tetrahydropyrido [4′,3′:4,5]thieno[2,3-d]pyrimidin-4-amine], the IC50 is 200 to 1000 nM in the test with A431 cells, less than 200 nM in the test with N87 and 200 to 1000 nM with H1975 cells.

Take `C/C=C/C(=O)N1CCc2c(sc3ncnc(Nc4ccc(F)c(Cl)c4)c23)C1` [Example 23, 7-[(2E)-but-2-enoyl]-N-(3-chloro-4-fluorophenyl)-5,6,7,8-tetrahydropyrido [4′,3′:4,5]thieno[2,3-d]pyrimidin-4-amine]: the figures for the IC50 with A431 cells, with N87 and with H1975 cells were 1000 to 10000 nM, 200 to 5000 nM and 1000 to 10000 nM, respectively.

On to `Cc1cccc(Nc2ncnc3sc4c(c23)CCN(C(=O)/C=C/CN(C)C)C4)c1` [Example 177, 7-[(2E)-4-(dimelhylamino)but-2-enoyl]-N-(3-methylphenyl)-5,6,7,8-tetrahydropyrido [4′,3′:4,5]thieno[2,3-d]pyrimidin-4-amine], for which the IC50 was 1000 to 10000 nM in the test on A431 cells, less than 200 nM in the test on N87 and 1000 to 10000 nM in the test on H1975 cells.

`Cc1cc(C)cc(Nc2ncnc3sc4c(c23)CCN(C(=O)/C=C/CN(C)C)C4)c1` [Example 167, 7-[(2E)-4-(dimethylamino)but-2-enoyl]-N-(3,5-dimethylphenyl)-5,6,7,8-tetrahydropyrido [4′,3′:4,5]thieno[2,3-d]pyrimidin-4-amine]: the values for the IC50 with A431 cells, with N87 and in the test with H1975 cells were 1000 to 10000 nM, less than 200 nM and 1000 to 10000 nM, respectively.

With `CCN(C/C=C/C(=O)N1CCc2c(sc3ncnc(Nc4cccc(Br)c4)c23)C1)C(C)C` [Example 204, N-(3-bromophenyl)-7-{(2E)-4-[ethyl(isopropyl)amino]but-2-enoyl}-5,6,7,8-tetrahydropyrido [4′,3′:4,5]thieno[2,3-d]pyrimidin-4-amine], the values for the IC50 in the test with A431 cells, in the test with N87 and with H1975 cells were 200 to 1000 nM, less than 200 nM and 200 to 1000 nM, respectively.

For the compound `O=C(/C=C/CN1CCCC1)N1CCc2c(sc3ncnc(Nc4ccc(OCc5cccc(F)c5)c(Cl)c4)c23)C1` [Example 25, N-{3-chloro-4-[(3-fluorobenzyl)oxy]phenyl}-7-[(2E)-4-pyrrolidin-1-ylbut-2-enoyl]-5,6,7,8-tetrahydropyrido [4′,3′:4,5]thieno[2,3-d]pyrimidin-4-amine], the IC50 is 200 to 1000 nM in the test on A431 cells, less than 200 nM in the test with N87 and 200 to 1000 nM in the test with H1975 cells.

The values are drawn from US8501755B2, “Tetrahydropyridothienopyrimidine compounds and methods of use thereof” (Bayer Intellectual Property GmbH, priority 2006, dated 2013).
